Measurements as given in patent US20030162222A1, “Method for selecting enzyme inhibitors” (priority 2000, published 2003).

Experiments:
[1] = tested on: 32D cells which express the mutant Bcr-Abl T315M; test: Proliferation and survival of 32D cells expressing mutant Bcr-Abl T315M in the absence of interleukin-3; assay type: cell-based, murine; details: 32D cells expressing Bcr-Abl T315M; no interleukin-3; PP1 25 μM or STI571 1 μM
Method: (§1) Bcr-Abl is a constitutionally active tyrosine kinase which induces different forms of leukaemia in the animal model and humans.
(§2) The example is carried out by transfixing 32D cells with a plasmid by electroporation, i.e. with the aid of a current pulse. The plasmid codes for either wt Bcr-Abl or e.g. for the mutant T315M. These plasmids additionally carry a resistance marker; in this case a puromycin resistance gene. Transfixed cells are therefore selected by means of puromycin.
(§3) The cells are then characterised biologically. For this purpose interleukin-3 is removed from them as an essential survival and growth factor.
(§4) Both substances prevent both proliferation and survival of cells which express Bcr-Abl wt, and do so to the same extent (FIGS. 17 and 18).

[2] = tested on: Src kinases; details: partly from the literature; cited from earlier work
[3] = tested on: 32D cells which express wt Bcr-Abl; test: Proliferation and survival of 32D cells expressing wt Bcr-Abl in the absence of interleukin-3; assay type: cell-based, murine; details: 32D cells expressing Bcr-Abl wt; no interleukin-3; PP1 25 μM or STI571 1 μM
Method: as §1, §2, §3, §4

## Cc1ccc(-c2nn(C(C)(C)C)c3ncnc(N)c23)cc1 [PP1]
[1]
  proliferation (cell growth): complete cessation of cell growth
[2]
  inhibition of Src kinases: inhibited
[3]
  proliferation of cells: prevent
